Data taken from US5591438A, “Natamycin recovery” (Bio-Technical Resources L.P., priority 1994, dated 1997).
In brackets after ≈: the same amount, converted by molar mass.

How the values were obtained:
Assay type in all cases: physicochemical
[1] = Natamycin methyl ester formation in methanol (stability of natamycin in acidified methanol)
Method: Formation of natamycin methyl ester, an undesired by-product, depends on the pH, the natamycin-methanol contact time, and the temperature (see Table 1). It is important that this step be carried out at a temperature of about 0°-25° C., since formation of natamycin methyl ester and other undesirable by-products is minimized. The higher the temperature or the longer the contact time, the greater the by-product production at a given pH. To avoid excessive natamycin methyl ester formation at 15°-25° C., short contact times, i.e., 0.5 hr or less, should be used. At about […], the extraction time should not exceed about 1.5 hr. An extraction temperature of about 0°-15° C. is preferred.
Natamycin Methyl Ester Formation in Methanol

[2] = physchem
Text: Since water content of the extraction medium depends on the amount of water in the feed stream, it is desirable to remove as much water as possible from the feed stream before Step 1. If the feed stream contains about 70% by volume water, about three times as much methanol is required than when starting with a substantially dry feed stream. If the feed stream contains about 40% by volume water, about twice as much methanol is required.
The pH depends to some extent on the water content of the extraction medium and the yield desired. To obtain a precipitation yield of about 90% or more, the natamycin concentration in the extraction medium should be about 40 g/L. In the absence of water this requires a pH of about 4.5. At about 30% water/70% methanol (by volume) this requires a pH of about 2.5 (Table 2).
Solubility of Natamycin in Methanol and Methanol/Water

[3] = physchem; details: methanol/cacl2, organic solvent or mixture, Solubility of Natamycin in Methanol/CaCl2 Extractant
Text: To precipitate a high percentage of the natamycin, the water content of the extraction liquor should be increased to at least 50% by volume. Table 3 indicates the solubility of natamycin in a methanol/water/calcium chloride solution as a function of water content.
Solubility of Natamycin in Methanol/CaCl2 *
Extractant at Various Water Concentrations

[4] = Ester formation in methanol with 40 g/L CaCl2 (stability of natamycin); details: for Methyl Ester (% of product) / Natamycin (concentration in methanol with CaCl2): methanol with 40 g/L CaCl2
Method: This process can be run at pH 2-9, preferably at pH 6-8. If the pH is low, shorter extraction times should be used because acidic conditions promote natamycin methyl ester formation. (See Table 4) If the pH is above 6, ester formation is slower. Any reasonable temperature may be used (i.e. 20°-30° C.).
Ester Formation in Methanol with 40 g/L CaCl2

C[C@@H]1C/C=C/C=C/C=C/C=C/[C@H](O[C@@H]2O[C@H](C)[C@@H](O)[C@H](N)[C@@H]2O)C[C@@H]2O[C@](O)(C[C@@H](O)C[C@H]3O[C@@H]3/C=C/C(=O)O1)C[C@H](O)[C@H]2C(=O)O [Natamycin, natamycin]
Methyl Ester (% by weight of product) ([1]; 4 °C, pH 2.4, 0 hr): 0.4 % by weight of product | Natamycin (concentration in methanol) ([1]; 4 °C, pH 2.4, 0 hr): 42 g/L | Methyl Ester (% by weight of product) ([1]; 4 °C, pH 2.4, 2 hr): 1.3 % by weight of product | Natamycin (concentration in methanol) ([1]; 4 °C, pH 2.4, 2 hr): 42 g/L | Methyl Ester (% by weight of product) ([1]; 4 °C, pH 2.4, 8.5 hr): 2.7 % by weight of product | Natamycin (concentration in methanol) ([1]; 4 °C, pH 2.4, 8.5 hr): 39 g/L | Methyl Ester (% by weight of product) ([1]; 4 °C, pH 2.4, 19 hr): 5.2 % by weight of product | Natamycin (concentration in methanol) ([1]; 4 °C, pH 2.4, 19 hr): 37 g/L | Methyl Ester (% by weight of product) ([1]; 23 °C, pH 2.4, 0 hr): 0 % by weight of product | Natamycin (concentration in methanol) ([1]; 23 °C, pH 2.4, 0 hr): 44 g/L | Methyl Ester (% by weight of product) ([1]; 23 °C, pH 2.4, 1 hr): 3.9 % by weight of product | Natamycin (concentration in methanol) ([1]; 23 °C, pH 2.4, 1 hr): 42 g/L | Methyl Ester (% by weight of product) ([1]; 23 °C, pH 2.4, 2 hr): 7.3 % by weight of product | Natamycin (concentration in methanol) ([1]; 23 °C, pH 2.4, 2 hr): 41 g/L | Methyl Ester (% by weight of product) ([1]; 23 °C, pH 2.4, 3 hr): 9.7 % by weight of product | Natamycin (concentration in methanol) ([1]; 23 °C, pH 2.4, 3 hr): 38 g/L | Methyl Ester (% by weight of product) ([1]; 23 °C, pH 3.2, 0 hr): 0 % by weight of product | Natamycin (concentration in methanol) ([1]; 23 °C, pH 3.2, 0 hr): 38 g/L | Methyl Ester (% by weight of product) ([1]; 23 °C, pH 3.2, 1 hr): 2.3 % by weight of product | Natamycin (concentration in methanol) ([1]; 23 °C, pH 3.2, 1 hr): 38 g/L | Methyl Ester (% by weight of product) ([1]; 23 °C, pH 3.2, 2 hr): 3.9 % by weight of product | Natamycin (concentration in methanol) ([1]; 23 °C, pH 3.2, 2 hr): 37 g/L | Methyl Ester (% by weight of product) ([1]; 23 °C, pH 3.2, 4 hr): 7.4 % by weight of product | Natamycin (concentration in methanol) ([1]; 23 °C, pH 3.2, 4 hr): 34 g/L | Methyl Ester (% by weight of product) ([1]; 23 °C, pH 3.2, 6 hr): 9.2 % by weight of product | Natamycin (concentration in methanol) ([1]; 23 °C, pH 3.2, 6 hr): 32 g/L | Methyl Ester (% by weight of product) ([1]; 23 °C, pH 3.2, 16 hr): 14 % by weight of product | Natamycin (concentration in methanol) ([1]; 23 °C, pH 3.2, 16 hr): 23 g/L | Methyl Ester (% by weight of product) ([1]; 23 °C, pH 4.0, 0 hr): 0 % by weight of product | Natamycin (concentration in methanol) ([1]; 23 °C, pH 4.0, 0 hr): 41 g/L | Methyl Ester (% by weight of product) ([1]; 23 °C, pH 4.0, 2 hr): 2.3 % by weight of product | Natamycin (concentration in methanol) ([1]; 23 °C, pH 4.0, 2 hr): 40 g/L | Methyl Ester (% by weight of product) ([1]; 23 °C, pH 4.0, 4 hr): 3.7 % by weight of product | Natamycin (concentration in methanol) ([1]; 23 °C, pH 4.0, 4 hr): 39 g/L | solubility in methanol [2]: excellent solubility | solubility in the extraction medium after acid addition [2]: highly soluble | solubility of natamycin in the extraction medium [2]: decreases as the water increases | solubility ([2]; methanol, pH 2, organic solvent or mixture): 94 mg/mL (≈ 141 mM) | solubility ([2]; methanol, pH 3.8, organic solvent or mixture): 78 mg/mL (≈ 117 mM) | solubility ([2]; methanol, pH 4.5, organic solvent or mixture): 50 mg/mL (≈ 75.1 mM) | solubility ([2]; methanol, pH 7, organic solvent or mixture): 6 mg/mL (≈ 9.01 mM) | solubility ([2]; methanol/water, pH 2.4, organic solvent or mixture): 55 mg/mL (≈ 82.6 mM) | solubility ([2]; methanol/water, pH 3.3, organic solvent or mixture): 18 mg/mL (≈ 27 mM) | solubility ([2]; methanol/water, pH 7, organic solvent or mixture): 4 mg/mL (≈ 6.01 mM) | solubility [3]: 91 mg/mL (≈ 137 mM) | Methyl Ester (% of product) ([4]; 5 °C, pH 4.4, 0 hr): 0 % of product | Natamycin (concentration in methanol with CaCl2) ([4]; 5 °C, pH 4.4, 0 hr): 60 g/L | Methyl Ester (% of product) ([4]; 5 °C, pH 4.4, 8 hr): 0.5 % of product | Natamycin (concentration in methanol with CaCl2) ([4]; 5 °C, pH 4.4, 8 hr): 60 g/L | Methyl Ester (% of product) ([4]; 23 °C, pH 4.4, 0 hr): 0 % of product | Natamycin (concentration in methanol with CaCl2) ([4]; 23 °C, pH 4.4, 0 hr): 72 g/L | Methyl Ester (% of product) ([4]; 23 °C, pH 4.4, 6 hr): 5.0 % of product | Natamycin (concentration in methanol with CaCl2) ([4]; 23 °C, pH 4.4, 6 hr): 67 g/L | Methyl Ester (% of product) ([4]; 23 °C, pH 5.3, 0 hr): 0 % of product | Natamycin (concentration in methanol with CaCl2) ([4]; 23 °C, pH 5.3, 0 hr): 51 g/L | Methyl Ester (% of product) ([4]; 23 °C, pH 5.3, 20 hr): 2.4 % of product | Natamycin (concentration in methanol with CaCl2) ([4]; 23 °C, pH 5.3, 20 hr): 48 g/L | Methyl Ester (% of product) ([4]; 23 °C, pH 6.1, 0 hr): 0 % of product | Natamycin (concentration in methanol with CaCl2) ([4]; 23 °C, pH 6.1, 0 hr): 51 g/L | Methyl Ester (% of product) ([4]; 23 °C, pH 6.1, 20 hr): 1.1 % of product | Natamycin (concentration in methanol with CaCl2) ([4]; 23 °C, pH 6.1, 20 hr): 49 g/L | natamycin methyl ester formation ([4]; methanol/CaCl2, pH above 6): slower
